In patent US8399495B2, “Talarazole metabolites” (Stiefel Laboratories, Inc., priority 2006, dated 2013):

Columns and labels:
[1] = Metabolite radioprofiling of plasma, urine and feces, rat; type: in vivo; details: rat (5 mg/kg) oral 14C-talarozole; for Urine % Dose as the component: urine 0-48 h
Description: (§1) Male and female CD-1 mice (19-29 g, n=3/sex/timepoint for blood sampling, n=3/sex for mass balance), Sprague Dawley rats (0.205-0.237 kg, n=3/sex/timepoint for blood sampling, n=3/sex for mass balance) and beagle dogs (7-12 kg, n=3) were given a single oral dose of ^14C-labeled talarozole in 20% hydroxyl propyl B-cyclodextrin at 5 mg/kg. Healthy human male volunteers (76.6-107.9 kg, n=5) were dosed with a single oral dose of 4 mg ^14C-labeled rambazole in ethanol. Blood samples were collected at selected timepoints after dosing and plasma was prepared. Urine and feces were collected for 2, 7 and 8 days. For the human study, up to 288 hours post-dose and semen samples were obtained 2 and 4 hours post-dose. Radioactivity in various matrices were measured by liquid scintillation counting (LSC). Select plasma, urine and fecal samples were subjected to metabolite radioprofiling and characterization, and in the human study, semen samples. Metabolite radioprofiling was accomplished using HPLC with fraction collection followed by solid scintillation counting (Packard TopCount—see representative HPLC run data below). Radioactivity peaks were integrated and the percent distribution of individual metabolites in each sample was determined. Metabolite characterization and identification were accomplished by LC/MS (Finnigan MAT LCQ in positive or negative ESI mode) in conjunction with an appropriate radioactive monitor (RAM). For all species, plasma, urine and fecal samples were pooled across animals and analyzed. Plasma was analyzed at several time-points out to 24 hours. Urine was analyzed over one time-interval (0-24 hours for mouse, 0-48 hours for rat, 0-72 hours for dog, and for in the human study, 0-12, 12-24, 24-48, 0-48 hours. Feces was analyzed over 2-3 time intervals (0-24 and 24-48 hours for mouse and rat; 0-24, 24-48, and 48-72 hours for male dogs; and 24-48, 48-72, and 72-96 hours for female dogs). In the human study, feces were analyzed for 0-48, 48-96, 96-144, 144-192, 192-288, 0-144, 144-288 and 0-288 hours. PK parameters for ^14C-labeled talarozole radioactivity was determined from the mean (mouse and rat) or individual (dog and human) plasma concentration versus time data. PK parameter values were determined by non-compartmental methods using WinNonlin™. • HPLC data for separations described in Example 1: • LC system: Waters 2695 Separations Module • Analytic column: C18 column, 4.6×150 mm, 3 μm • Flow rate: 1.0 mL/min • Mobile phase A: 2% HCOOH in H2O (pH 3.2) • Mobile phase B: CH3CN • Gradient: […]

[2] = Metabolite radioprofiling of plasma, urine and feces, dog; type: in vivo; details: dog (5 mg/kg) oral 14C-talarozole; for Urine % Dose as the component: urine 0-72 h
Description: as §1

[3] = test system: IP-10; assay: Suppression of IP-10 production by IFNγ-activated human epidermal keratinocytes; type: cell-based
Text: Talarozole Metabolites for Suppression of IP-10 Production by IFNγ-Activated Human Epidermal Keratinocytes
IP-10, a member of the CXC subfamily of chemokines, attracts T-lymphocytes and natural killer cells. […] In particular, epidermal keratinocytes of psoriatic lesions express elevated levels of IP-10. Suppression of IP-10 expression by activated keratinocytes may represent a novel target for therapeutic intervention of inflammatory skin disorders.

[4] = Metabolite radioprofiling of plasma, urine and feces, mouse; type: in vivo; details: mouse (5 mg/kg) oral 14C-talarozole; for Urine % Dose as the component: urine 0-24 h
Description: as §1

[5] = Metabolite radioprofiling of plasma, urine, feces and semen, human; details: in vivo
Description: as §1

[6] = test system: vaginal keratinization induced by estrogenic treatment; assay: Inhibition of vaginal keratinization induced by estrogenic treatment in ovariectomized rats; type: in vivo, rat; details: for ED50-value for complete suppression (keratinization score=0): ovariectomized rats with estrogenic treatment, M4 oral during 3 days
Text: Effects on Epithelial Differentiation in Rat Vagina: Inhibition of Vaginal Keratinization Induced by Estrogenic Treatment in Ovariectomized Rats by Oral Administration of Talarozole Metabolite M4
This animal model is based on the observation that retinoic acid (RA) suppresses the keratinization process in the stratified squamous epithelium of the vagina induced by estrogenic treatment in ovariectomized rats (Sietsema & DeLuca, 1982; Geiger & Weiser, 1989).

| SMILES | Feces % Dose as the component ([1]; female) [% Dose] | Plasma 0-24 h AUC (% Sample) ([1]; female) [%] | Plasma 0-24 h AUC of the radioactive component ([1]; female) [ng·h/g] | Urine % Dose as the component ([1]; female) [% Dose] | Feces % Dose as the component ([1]; male) [% Dose] | Plasma 0-24 h AUC (% Sample) ([1]; male) [%] | Plasma 0-24 h AUC of the radioactive component ([1]; male) [ng·h/g] | Urine % Dose as the component ([1]; male) [% Dose] | Feces % Dose as the component ([2]; female) [% Dose] | Urine % Dose as the component ([2]; female) [% Dose] | Feces % Dose as the component ([2]; male) [% Dose] | Urine % Dose as the component ([2]; male) [% Dose] | IP-10 expression [3] | Plasma 0-24 h AUC (% Sample) ([4]; female) [%] | Plasma 0-24 h AUC of the radioactive component ([4]; female) [ng·h/g] | Plasma 0-24 h AUC (% Sample) ([4]; male) [%] | Plasma 0-24 h AUC of the radioactive component ([4]; male) [ng·h/g] | ED50-value for complete suppression (keratinization score=0) [6] [mg/kg/day] | also measured |
| --- | --- | --- | --- | --- | --- | --- | --- | --- | --- | --- | --- | --- | --- | --- | --- | --- | --- | --- | --- |
| CCC(CC)C(c1ccc(Nc2nc3ccc(O)cc3s2)cc1)n1cncn1 (stereo not shown) [Metabolite M4] | 7.76 | 3.68 | 331.07 | 0.29 | 4.95 | 7.01 | 493.84 | 0.07 | 17.01 | 0.01 | 19.88 | 0.04 | down regulate dose-dependently | 7.44 | 492.2 | 4.43 | 402.45 | 1.2 | Plasma 0-24 h AUC (% Sample) ([2]; female): 34.33%; Plasma 0-24 h AUC of the radioactive component ([2]; female): 6257.6 ng·h/g; Plasma 0-24 h AUC (% Sample) ([2]; male): 18.37%; Plasma 0-24 h AUC of the radioactive component ([2]; male): 3132.4 ng·h/g; Feces % Dose as the component ([4]; female): 15.16 % Dose; Urine % Dose as the component ([4]; female): 0.01 % Dose; Feces % Dose as the component ([4]; male): 10.56 % Dose; Urine % Dose as the component ([4]; male): 0.02 % Dose; Plasma 0-24 h AUC of the radioactive component ([5]; human, po, 0.067 mg/kg): 58.74 ng·h/g; Semen (radioactive component in semen samples) [5]: minor radioactive components; Plasma 0-24 h AUC (% Sample), % of total plasma radioactivity ([5]; male, human, po, 0.067 mg/kg): 27.8%; inhibition of vaginal keratinization ([6]; oral administration during 3 days, ovariectomized rats): inhibited vaginal keratinization induced by estrogenic treatment in ovariectomized rats in a dose-dependent manner |
| CCC(CC)C(c1ccc(Nc2nc3ccc(OC4OC(C(=O)O)C(O)C(O)C4O)cc3s2)cc1)n1cncn1 (stereo not shown) [Metabolite M9] |  | 12.06 | 1084.8 |  |  | 4.43 | 312.30 |  | 3.09 | 0.45 | 4.31 | 1.35 |  | 18.27 | 1208.2 | 21.31 | 1937.3 |  |  |
| CCC(CC)C(c1ccc(Nc2nc3ccc(OS(=O)(=O)O)cc3s2)cc1)n1cncn1 (stereo not shown) [Metabolite M16] | 1.33 | 2.43 | 218.47 | 0.31 | 1.42 | 2.94 | 207.48 | 0.16 |  |  |  |  |  |  |  |  |  |  |  |
| CC1=C(/C=C/C(C)=C/C=C/C(C)=C/C(=O)O)C(C)(C)CCC1 [RA, retinoic acid] |  |  |  |  |  |  |  |  |  |  |  |  |  |  |  |  |  | 5.1 |  |
| CCC(CC)[C@@H](c1ccc(Nc2nc3ccccc3s2)cc1)n1cncn1 [its enanantiomer] |  |  |  |  |  |  |  |  |  |  |  |  | down regulate dose-dependently |  |  |  |  |  |  |
